According to ChEMBL document CHEMBL1201862, “PubChem BioAssay data set” (2004):
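Cultured in 96-well plates, cells were exposed to test compound for 48 hours across five concentrations. At the GI50, growth is halved.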 Activity calls are given as the source filed them. No stated cut-off is given here; in the data, active = GI50 up to about 1.1 µM and inactive = higher.

Tests used:
Assay in all cases: NCI tumour cell line growth inhibition, 48 h
A549 = test system: A549
CAKI-1 = test system: CAKI-1
CCRF-CEM = test system: CCRF-CEM
COLO 205 = test system: COLO 205
DU-145 = test system: DU-145
HCC 2998 = test system: HCC 2998
HL-60 = test system: HL-60
K562 = test system: K562
MDA-MB-231 = test system: MDA-MB-231
MDA-N = test system: MDA-N
NCI-H460 = test system: NCI-H460
OVCAR-4 = test system: OVCAR-4
PC-3 = test system: PC-3
SF-268 = test system: SF-268
SK-MEL-5 = test system: SK-MEL-5
SNB-19 = test system: SNB-19
SW-620 = test system: SW-620
TK-10 = test system: TK-10
U-251 = test system: U-251
UACC-257 = test system: UACC-257

Measured: GI50

CC1=C(C#N)c2nc3ccccc3n2C(=O)C1(C)CCO (stereo not given)
inactive: A549 > 100 µM | CAKI-1 > 100 µM | CCRF-CEM > 100 µM | COLO 205 > 100 µM | DU-145 > 100 µM | HCC 2998 > 100 µM | HL-60 > 100 µM | K562 > 100 µM | MDA-MB-231 > 100 µM | MDA-N > 100 µM | NCI-H460 > 100 µM | OVCAR-4 > 100 µM | PC-3 > 100 µM | SF-268 > 100 µM | SK-MEL-5 > 100 µM | SNB-19 > 100 µM | SW-620 > 100 µM | TK-10 > 100 µM | U-251 > 100 µM | UACC-257 > 100 µM

O=C(OCCN=C1c2ccccc2CCc2ccccc21)c1ccccc1
inactive: A549 > 100 µM | CAKI-1 > 100 µM | CCRF-CEM > 100 µM | COLO 205 > 100 µM | DU-145 > 100 µM | HCC 2998 > 100 µM | HL-60 > 100 µM | K562 > 100 µM | MDA-MB-231 > 100 µM | MDA-N > 100 µM | NCI-H460 > 100 µM | OVCAR-4 > 100 µM | PC-3 > 100 µM | SF-268 > 100 µM | SK-MEL-5 > 100 µM | SNB-19 > 100 µM | SW-620 > 100 µM | TK-10 > 100 µM | U-251 > 100 µM | UACC-257 > 100 µM

CN(C)/C=C/c1nnnn1-c1ccc(I)cc1
inactive: A549 > 100 µM | CAKI-1 22.3 µM | CCRF-CEM 10.6 µM | COLO 205 > 100 µM | DU-145 28.2 µM | HCC 2998 39.6 µM | HL-60 6.21 µM | K562 19 µM | MDA-MB-231 16.6 µM | MDA-N 22.4 µM | NCI-H460 31.1 µM | OVCAR-4 20.5 µM | PC-3 16.6 µM | SF-268 17.5 µM | SK-MEL-5 16.6 µM | SNB-19 20.3 µM | SW-620 15.3 µM | TK-10 30.5 µM | U-251 11.9 µM | UACC-257 27 µM

NC(CO)C(=O)NCC(=O)O (stereo not given)
inactive: A549 > 100 µM | CAKI-1 > 100 µM | CCRF-CEM > 100 µM | COLO 205 > 100 µM | DU-145 > 100 µM | HCC 2998 > 100 µM | HL-60 > 100 µM | K562 > 100 µM | MDA-MB-231 > 100 µM | MDA-N > 100 µM | NCI-H460 > 100 µM | OVCAR-4 > 100 µM | PC-3 > 100 µM | SF-268 > 100 µM | SK-MEL-5 > 100 µM | SNB-19 > 100 µM | SW-620 > 100 µM | TK-10 > 100 µM | U-251 > 100 µM | UACC-257 > 100 µM

COC(=O)C1=C(C(=O)OC)SC2(S1)C1=C(CCC1)SC(C(=O)OC)=C2C(=O)OC
inactive: A549 16.5 µM | CAKI-1 5.87 µM | CCRF-CEM 2.17 µM | COLO 205 13.8 µM | DU-145 4.4 µM | HCC 2998 16.3 µM | HL-60 6.76 µM | K562 3.09 µM | MDA-MB-231 18.8 µM | MDA-N 14.5 µM | NCI-H460 5.37 µM | OVCAR-4 15.1 µM | PC-3 11.2 µM | SF-268 15.5 µM | SK-MEL-5 14.9 µM | SNB-19 19.6 µM | SW-620 2.43 µM | TK-10 14.9 µM | U-251 15.6 µM | UACC-257 15.7 µM

CC(C)(C)c1nc2c(o1)/C(=N\c1ccc(F)cc1)c1ccccc1C2=O
inactive: A549 6.49 µM | CAKI-1 50.9 µM | CCRF-CEM > 100 µM | COLO 205 15.7 µM | DU-145 10.4 µM | HCC 2998 9.12 µM | HL-60 > 28.6 µM | K562 4.1 µM | MDA-MB-231 30.2 µM | MDA-N 2.37 µM | NCI-H460 5.74 µM | OVCAR-4 28.8 µM | PC-3 5.41 µM | SF-268 10.6 µM | SK-MEL-5 1.7 µM | SNB-19 8.24 µM | SW-620 4.27 µM | TK-10 35.7 µM | U-251 3.48 µM | UACC-257 2.36 µM

Cc1nc2cc(/N=N/c3c(C)noc3C)ccc2[nH]1
inactive: A549 19.1 µM | CAKI-1 18.9 µM | CCRF-CEM 25.2 µM | COLO 205 15.1 µM | DU-145 27.7 µM | HCC 2998 54.3 µM | HL-60 13.1 µM | K562 35.6 µM | MDA-MB-231 28.2 µM | MDA-N 16.8 µM | NCI-H460 21.8 µM | OVCAR-4 64.7 µM | PC-3 27.6 µM | SF-268 26.6 µM | SK-MEL-5 12.4 µM | SNB-19 43.9 µM | SW-620 24.8 µM | TK-10 22.9 µM | U-251 28.4 µM | UACC-257 44.1 µM
